Measured values from patent US10414764B2, “Substantially pure vemurafenib and its salts” (SHILPA MEDICARE LIMITED, priority 2014, dated 2019).
Structures can show the parent of a compound that is named as a salt. Where two headings read alike, the source gives them in different places. Each block holds one compound with its values, some of them ahead of it.

Assays:
[1] = cited from earlier work; for Solubility in water: marketed/prior reported crystalline Form II, from EMEA scientific discussion of Zelboraf
Solubility in water = assay type: physicochemical; details: product as per the present invention
[2] = Storage stability (morphology and physicochemical characteristics); details: Vemurafenib obtained as per the present process
[3] = European assessment report of Zelboraf; low solubility and permeability; cited from earlier work

Structure (SMILES): CCCS(=O)(=O)Nc1ccc(F)c(C(=O)c2c[nH]c3ncc(-c4ccc(Cl)cc4)cc23)c1F [Form-II, propane-1-sulfonic acid-{3-[5-(4-chlorophenyl)-1H-pyrrolo[2,3-b]pyridine-3-carbonyl]-2,4-difluoro-phenyl}-amide]
Solubility in water [1]: <0.1 µg/mL | Solubility in water ([1]; listed as Crystalline Vemurafenib (Form II)): < 0.1 µg/mL

Solubility in water (Solubility in water): >1 µg/mL | solubility (Solubility in water; water): > 1 µg/mL
Structure (SMILES): CCCS(=O)(=O)Nc1ccc(F)c(C(=O)c2c[nH]c3ncc(-c4ccc(Cl)cc4)cc23)c1F [Form-SVM, propane-1-sulfonic acid-{3-[5-(4-chlorophenyl)-1H-pyrrolo[2,3-b]pyridine-3-carbonyl]-2,4-difluoro-phenyl}-amide]

Solubility in water (Solubility in water): ≥ 1 µg/mL
Structure (SMILES): CCCS(=O)(=O)Nc1ccc(F)c(C(=O)c2c[nH]c3ncc(-c4ccc(Cl)cc4)cc23)c1F [Vemurafenib trifluoro methane sulfonic acid salt]

Stable to handle and store without significant change in morphology and physicochemical characteristics [2]: more than 6 months
Structure (SMILES): CCCS(=O)(=O)Nc1ccc(F)c(C(=O)c2c[nH]c3ncc(-c4ccc(Cl)cc4)cc23)c1F [Vemurafenib, propane-1-sulfonic acid-{3-[5-(4-chlorophenyl)-1H-pyrrolo[2,3-b]pyridine-3-carbonyl]-2,4-difluoro-phenyl}-amide]
Biopharmaceutics Classification System class [3]: Class IV | Solubility in aqueous media ([1]; background description of the drug substance): practically insoluble | Solubility in water [1]: < 0.1 µg/mL
